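48-hour exposure; five concentrations; linearly interpolated endpoints. At the GI50, growth is halved.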 Calls of active or inactive are those of the source. Cut-off read from the data, not from the text of the source: active = GI50 up to about 1.1 µM and inactive = higher.
Key:
Test in all cases: NCI anticancer screen, dose series, 48 h
MOLT-4 = test system: MOLT-4
SNB-19 = test system: SNB-19
K562 = test system: K562
HOP-92 = test system: HOP-92
A498 = test system: A498
SK-MEL-2 = test system: SK-MEL-2
HCT-15 = test system: HCT-15
SF-295 = test system: SF-295
DLD-1 = test system: DLD-1
HT-29 = test system: HT-29
SN12C = test system: SN12C
SW-620 = test system: SW-620
SF-539 = test system: SF-539
SK-OV-3 = test system: SK-OV-3
ACHN = test system: ACHN
CAKI-1 = test system: CAKI-1
DU-145 = test system: DU-145
NCI/ADR-RES = test system: NCI/ADR-RES
T47D = test system: T47D
Hs-578T = test system: Hs-578T

Compound	GI50 (MOLT-4)	GI50 (SNB-19)	GI50 (K562)	GI50 (HOP-92)	GI50 (A498)	GI50 (SK-MEL-2)	GI50 (HCT-15) [µM]	GI50 (SF-295)	GI50 (DLD-1)	GI50 (HT-29)	GI50 (SN12C)	GI50 (SW-620)	GI50 (SF-539)	GI50 (SK-OV-3)	GI50 (ACHN)	GI50 (CAKI-1)	GI50 (DU-145)	GI50 (NCI/ADR-RES)	GI50 (T47D)	GI50 (Hs-578T)
COC(=O)c1cc2c3c(ccc2[nH]1)N(C(=O)c1cc2c4c(ccc2[nH]1)N(C(=O)c1cc2c5c(ccc2[nH]1)N(C(N)=O)CC5)CC4)CC3	> 23 µM (inactive)	2.61 µM (inactive)	2.44 µM (inactive)	2.03 µM (inactive)	1.29 µM (inactive)	3.18 µM (inactive)	12	3.12 µM (inactive)	> 21.1 µM (inactive)	6.58 µM (inactive)	2.97 µM (inactive)	7.85 µM (inactive)	3.6 µM (inactive)	2.1 µM (inactive)	3.13 µM (inactive)	2 µM (inactive)				
CC1(C)O/C(=C\c2ccccc2)C(=O)/C(=C/c2ccccc2)O1	14.7 µM (inactive)	47.4 µM (inactive)	27 µM (inactive)	29.9 µM (inactive)	> 100 µM (inactive)	18.4 µM (inactive)		44.9 µM (inactive)	42.3 µM (inactive)	29.4 µM (inactive)	47.6 µM (inactive)	55.1 µM (inactive)	67 µM (inactive)	72.6 µM (inactive)	33.8 µM (inactive)	55.3 µM (inactive)				
CN(C)NC(=O)/C(=C/c1ccc(Cl)cc1)NC(=O)c1ccccc1	> 100 µM (inactive)	> 100 µM (inactive)	85.3 µM (inactive)	> 100 µM (inactive)	> 100 µM (inactive)	> 100 µM (inactive)	32	> 100 µM (inactive)	44.9 µM (inactive)	> 100 µM (inactive)	> 100 µM (inactive)		> 100 µM (inactive)	> 100 µM (inactive)	> 100 µM (inactive)	> 100 µM (inactive)				
COc1cc2ccnc3c2c(c1OC)CC1CC(O)C(OC)CC31 (configuration not stated)	33.3 µM (inactive)	99.3 µM (inactive)	47.2 µM (inactive)	14.7 µM (inactive)		> 100 µM (inactive)	63.8	36.6 µM (inactive)	95.3 µM (inactive)	46.5 µM (inactive)	41.4 µM (inactive)	33.7 µM (inactive)	24.4 µM (inactive)	> 100 µM (inactive)	44.4 µM (inactive)					
CNC(C)Cc1ccccc1O (configuration not stated)	> 100 µM (inactive)	> 100 µM (inactive)	> 100 µM (inactive)	> 100 µM (inactive)	> 100 µM (inactive)	> 100 µM (inactive)	8.71	> 100 µM (inactive)	> 100 µM (inactive)	> 100 µM (inactive)	> 100 µM (inactive)	> 100 µM (inactive)	> 100 µM (inactive)	> 100 µM (inactive)	> 100 µM (inactive)	> 100 µM (inactive)				
CN1CC[C@]2(C)c3cc(O)ccc3CC3CCCC1C32C (some centres not stated)	> 100 µM (inactive)	> 100 µM (inactive)	> 100 µM (inactive)	> 100 µM (inactive)	> 100 µM (inactive)		> 100	> 100 µM (inactive)	> 100 µM (inactive)	> 100 µM (inactive)	> 100 µM (inactive)	> 100 µM (inactive)	> 100 µM (inactive)	> 100 µM (inactive)	> 100 µM (inactive)	> 100 µM (inactive)				
Oc1ccc(-c2n[nH]c(S)n2)cc1	> 100 µM (inactive)	> 100 µM (inactive)	> 100 µM (inactive)	> 100 µM (inactive)	> 100 µM (inactive)	> 100 µM (inactive)	> 100	> 100 µM (inactive)	> 100 µM (inactive)	> 100 µM (inactive)	> 100 µM (inactive)	> 100 µM (inactive)	> 100 µM (inactive)	> 100 µM (inactive)	> 100 µM (inactive)	> 100 µM (inactive)				
CCO[C@]12C[C@H](OC)[C@@]3(O)CC(C1[C@H]3OCc1ccccc1)C13C4C2[C@H](OC)C1[C@](COC)(CN4CC)[C@H](O)C[C@@H]3OC (some centres not stated)	95.9 µM (inactive)	> 100 µM (inactive)	> 100 µM (inactive)				> 100		> 100 µM (inactive)	> 100 µM (inactive)	> 100 µM (inactive)	> 100 µM (inactive)	> 100 µM (inactive)	> 100 µM (inactive)	> 100 µM (inactive)					
Cc1ccc2[nH]c3c4c5ccccc5nc-4c[nH]c3c2c1	16.2 µM (inactive)	17.3 µM (inactive)	12.6 µM (inactive)			18.9 µM (inactive)		17.2 µM (inactive)	15.5 µM (inactive)	11.6 µM (inactive)	16.3 µM (inactive)	13.7 µM (inactive)	16.9 µM (inactive)	12.6 µM (inactive)	16.7 µM (inactive)	15.8 µM (inactive)				
CCOC(=O)C(=O)Nc1ccc([N+](=O)[O-])cc1C#N	> 100 µM (inactive)	> 100 µM (inactive)	> 100 µM (inactive)	> 100 µM (inactive)		> 100 µM (inactive)	> 100	> 100 µM (inactive)	> 100 µM (inactive)	> 100 µM (inactive)	> 100 µM (inactive)	> 100 µM (inactive)	> 100 µM (inactive)	> 100 µM (inactive)	> 100 µM (inactive)	> 100 µM (inactive)				
Cc1nc(N)nc(N)c1CCCCc1ccc(N)cc1	1.58 µM (inactive)	6.87 µM (inactive)	0.321 µM (active)	3.93 µM (inactive)		9.06 µM (inactive)	4.09	1.94 µM (inactive)	6.43 µM (inactive)	0.729 µM (active)	4.3 µM (inactive)	3.29 µM (inactive)	7.98 µM (inactive)	2.88 µM (inactive)	4.12 µM (inactive)	9.66 µM (inactive)				
O=C1C2c3[nH]c4ccccc4c3[C@@H]3CCCCC3C2C(=O)N1c1ccccc1 (some centres not stated)	19 µM (inactive)	36.1 µM (inactive)	20.9 µM (inactive)		28.6 µM (inactive)		25.7	21.1 µM (inactive)	26.2 µM (inactive)	19.7 µM (inactive)	17.8 µM (inactive)	19.1 µM (inactive)	> 10 µM (inactive)	26.9 µM (inactive)	25.4 µM (inactive)					
Cc1cc(N(CCC#N)CCC#N)ccc1/C=C1\N=C(c2cc([N+](=O)[O-])ccc2Cl)N(NC(=O)c2ccc(/N=C\c3ccc(N(CCC#N)S(C)(=O)=O)cc3C)cc2)C1=O		> 100 µM (inactive)	31.9 µM (inactive)	98.9 µM (inactive)	> 100 µM (inactive)	> 100 µM (inactive)	33		63.5 µM (inactive)	54.5 µM (inactive)	> 100 µM (inactive)	> 100 µM (inactive)	> 100 µM (inactive)	> 100 µM (inactive)	89.9 µM (inactive)	> 100 µM (inactive)				
CCCOc1ccc(/C=C/c2cc(OC)c(OC)c(OC)c2)cc1	0.443 µM (active)	0.681 µM (active)	0.0733 µM (active)	0.347 µM (active)	1.08 µM (active)	0.822 µM (active)	0.348	0.185 µM (active)	0.386 µM (active)	0.272 µM (active)	0.635 µM (active)	0.218 µM (active)	0.269 µM (active)		0.697 µM (active)	0.209 µM (active)				
O=C(c1ccco1)N(C(=S)N1CCN(c2ccccc2)CC1)c1ccccc1	> 100 µM (inactive)	> 100 µM (inactive)	> 100 µM (inactive)	> 100 µM (inactive)		> 100 µM (inactive)	> 100	> 100 µM (inactive)	> 100 µM (inactive)	> 100 µM (inactive)	> 100 µM (inactive)	> 100 µM (inactive)	> 100 µM (inactive)	> 100 µM (inactive)	> 100 µM (inactive)	> 100 µM (inactive)				
c1ccc2c(c1)nnn2CNc1ccc(N2CCCCC2)cc1	> 100 µM (inactive)	> 100 µM (inactive)	> 100 µM (inactive)	> 100 µM (inactive)	> 100 µM (inactive)	> 100 µM (inactive)	> 100	> 100 µM (inactive)	> 100 µM (inactive)	> 100 µM (inactive)	> 100 µM (inactive)	> 100 µM (inactive)	> 100 µM (inactive)	> 100 µM (inactive)	> 100 µM (inactive)					
NCCCC(N/C=C1/N=C(c2ccccc2)OC1=O)C(=O)O (configuration not stated)	> 100 µM (inactive)	> 100 µM (inactive)	34.4 µM (inactive)	> 100 µM (inactive)	> 100 µM (inactive)	> 100 µM (inactive)	> 100	> 100 µM (inactive)	65.8 µM (inactive)	> 100 µM (inactive)	> 100 µM (inactive)	> 100 µM (inactive)	> 100 µM (inactive)	> 100 µM (inactive)	> 100 µM (inactive)					
CCOC(=O)CC[C@H](NC(=O)[C@H](N)Cc1ccc(N(CCCl)CCCl)cc1)C(=O)OCC	0.386 µM (active)	27.6 µM (inactive)	22.6 µM (inactive)	3.64 µM (inactive)	> 100 µM (inactive)	29.4 µM (inactive)	18.1	29.2 µM (inactive)		36.1 µM (inactive)	14.2 µM (inactive)	18 µM (inactive)	9.66 µM (inactive)	36.3 µM (inactive)	4.76 µM (inactive)	4.65 µM (inactive)	13.2 µM (inactive)	9.42 µM (inactive)	8.07 µM (inactive)	22.3 µM (inactive)

From ChEMBL document CHEMBL1201862, “PubChem BioAssay data set” (2004)
